Assay results: patent US9493833B1, “Methods for preventing induced synthesis of proteasomes in human cells” (THE REGENTS OF THE UNIVERSITY OF CALIFORNIA, priority 2009, dated 2016)
Where a SMILES comes first, the peptide text is derived from it. The star is where a group is joined. Cbz = O=C(OCc1ccccc1)*

Experiments:
[1] = system: PSM genes (PSMA7, PSMB4, PSMB7, PSMC1, PSMC4, PSMD1, PSMD12); test: mRNA levels of representative PSM genes by quantitative RT-PCR in LNCaP and HT-29 cells treated with proteasome inhibitors or MLN4924; type: cell-based, human; details: 10 hrs, normalized to GAPDH, DMSO set to 1
Procedure: The human prostate cancer LNCaP and colon cancer HT29 cell lines were incubated with different proteasome inhibitors (MG132, YU101, and bortezomib) or the Nedd8 pathway inhibitor MLN4924 (Soucy et al., 2009, Nature, 458, 732-736). Prostate cancer LNCaP and colon cancer HT-29 cells were treated with the indicated concentrations of proteasome inhibitors (MG132, YU101, and Bortezomib) or the Nedd8 pathway inhibitor (MLN4924) for 10 hrs, and mRNA levels of representative PSM genes were analyzed by quantitative RT-PCR (FIGS. 1A-1C). The values were normalized to GAPDH and for each cell line the DMSO treated sample was set to 1. Error bars denote SD (n=3). […] MLN4924 works by inhibiting the Nedd8-activating enzyme, the result of which is the accumulation of cullin-RING ligase (CRL) substrates (Soucy et al., 2009).
(§1) RNA was isolated using the RNeasy kit (Qiagen). cDNA was prepared using the Superscript III first strand synthesis kit (Invitrogen) according to the manufacturer's recommendations. Quantitative PCR (qPCR) was performed using the SYBR GreenER supermix (Invitrogen).

[2] = biological target: T1, proteasome (chymotryptic site) (Homo sapiens, UniProt P20618+P28074); test: Proteasome activity recovery assay in HT29 cells after drug wash-out; type: cell-based
T1 construct: endogenous in cells; host or cells: HT29 human colon cancer cells, treated intact; activity measured in freeze-thaw lysate
Procedure: Cells were frozen at different time points as indicated and were used for proteasome activity assays as described herein. For each time point, the results are normalized to DMSO-treated control in the case of hatched lines and to CHX-treated control in the case of solid lines. Error bars denote SD (n=3). […] The results were normalized to DMSO-treated control for each cell type. Error bars denote S.E.M. (n=2). […] The next day, the cells were treated with indicated concentrations of YU101 and the pan-caspase inhibitor Z-VAD-FMK, and further incubated for 72 hrs. The cell viability was then assessed using the CellTiter-Glo method (FIG. 12A). The results were normalized to DMSO-treated control which was set to 100% in each case. Error bars denote S.E.M. (n=2). […] The cell lysates were used for immunoblotting to detect the levels of Nrf1 (with the antibody raised against N-terminus) and cleaved caspase-3. β-actin protein levels were used as loading control. […] The cells were then washed with PBS thrice and allowed to recover in fresh medium. At definite time points, the cells were freeze-thawed in TE buffer (20 mM Tris pH 8, 5 mM EDTA) and subsequently used for measuring proteasome activity as described previously (Demo et al., 2007).

PSM genes [3] = test: mRNA levels of representative PSM genes by quantitative RT-PCR in MEFs (WT, Nrf1−/−, Nrf2−/−; retroviral transduction); type: cell-based, mouse; details: 10 hrs
Procedure: Specifically, MEFs of different genotypes (WT, Nrf1^−/−, and Nrf2^−/−) were treated for 10 hrs with MG132 as indicated (FIG. 2A), and the cell lysates were used for immunoblotting to detect protein levels of Nrf1 (with the antibody raised against the N-terminus) and Nrf2. β-actin protein levels were used as loading control. RNA from MEFs under the same treatment conditions as above was used for quantitative RT-PCR to assess the mRNA levels of representative PSM genes (FIGS. 2B-2C), The values were normalized to GAPDH and the DMSO treated WT sample was set to 1. Error bars denote SD (n=3).
Nrf1^−/− MEFs were transduced with retrovirus expressing one of Flag-Nrf1, Flag-Nrf1-HA or vector control and 72 hrs later treated with MG132 for 10 hrs as indicated. The cell lysates were used for immunoblotting to detect the levels of exogenous Nrf1 by using tag-specific antibodies (FIG. 3A). β-actin protein levels were used as loading control. RNA from Nrf1^−/− MEFs under the same viral transduction and treatment conditions as above was used for quantitative RT-PCR to assess the mRNA levels of representative PSM genes (FIG. 3B). The values were normalized to GAPDH and the vector-transduced DMSO-treated sample was set to 1. Error bars denote SD (n=3).
WT and Nrf1^−/− MEFs were transduced with retrovirus expressing sh-Nrf1 or vector control and 72 hrs later treated with MG132 for 10 hrs as indicated. […] RNA from MEFs under the same viral transduction and treatment conditions as above was used for quantitative RT-PCR to assess the mRNA levels of representative PSM genes (FIG. 4B). […]
as §1

PSMA4 ARE = test: 3×PSMA4-ARE-Luc / 3×PSMA4-mutARE-Luc luciferase assay in LNCaP cells; type: cell-based, human; details: for luciferase activity (3×PSMA4-mutARE-Luc, AREs mutated) / luciferase activity (3×PSMA4-ARE-Luc): LNCaP; for luciferase activity (3×PSMA4-ARE-Luc): versus DMSO-treated / vector control, MG132 12 hrs
Procedure: (§2) Sequence alignment of the genomic region close to the transcription start site (indicated by +1) of the PSMB6 gene in mouse and human. The putative ARE sequences and the start codon are marked as shown (FIG. 6). WT and Nrf1^−/− MEFs were transfected with the PSMB6-Luc construct and 24 hrs post-transfection, the cells were treated with the indicated concentration of MG132 for 12 hrs after which luciferase assays were performed as described herein (FIG. 7). Error bars denote SD (n=3). […] LNCaP cells were transiently transfected with the indicated reporter constructs along with either a vector control or Flag-Nrf1 expression construct. Forty-eight hours (hrs) after transfection, the cells were further incubated with the indicated concentration of MG132 for 12 hrs after which luciferase assays were performed as described herein (FIG. 9). Error bars denote SD (n=3).
(§3) Cells were transiently transfected with the firefly (promoter reporters) and renilla luciferase (pRL-TK; Promega) constructs along with effector plasmid as required. After harvesting the cells, luciferase assays were performed using the Dual Luciferase reporter assay system (E1910; Promega) according to the instructions from the manufacturer. The firefly luciferase activity was normalized to renilla luciferase activity for all experiments.

murine PSMB6 promoter = test: PSMB6-Luc promoter-reporter luciferase assay in MEFs; type: cell-based, mouse; details: WT MEFs, MG132 12 hrs
Procedure: as §2, §3

[4] = system: anti-oxidant response elements (8×AREs); test: 8×ARE-SV40-Luc luciferase reporter assay in LNCaP cells; type: cell-based, human; details: for luciferase activity (8×ARE reporter) in combination with MG132: TSA or SAHA added with MG132, 16 hours
Procedure: TSA and SAHA were assayed using a luciferase reporter construct. The luciferase reporter was driven by a promoter harboring multimerized anti-oxidant response elements (8×AREs) and was transfected into LNCaP cells.
(§4) LNCaP cells were subjected to treatment with one of MG132 (1 μM), TSA (1 μM), SAHA (5 μM), MG132 (1 μM)+TSA (1 μM), or MG132 (1 μM)+SAHA (1 μM) for 10 hrs and the RNA from these cells was used for quantitative RT-PCR to assess the mRNA levels of representative PSM genes (FIG. 5A). The values were normalized to GAPDH and the DMSO-treated sample was set to 1. A representative experiment performed in duplicates is shown. MDA-MB-231 cells were treated with different agents at the same concentrations as above (except MG132 which was used at 5 μM) for 48 hrs after which the cells were used for cell-titer glo assay to assess cell viability. Data from an experiment performed in quadruplicates is shown (FIG. 5B). LNCaP cells transfected with 8×ARE-SV40-Luc construct alone (control) or co-transfected with Flag-Nrf1 were further treated with different agents as indicated (FIG. 10). pRL-TK renilla luciferase expression construct was used as a transfection control for normalization. Sixteen hours later, the cells were harvested and used for Luciferase assay.
as §3

[5] = after administration; cited from earlier work
MDA-MB-231 cells = test: Cell-titer glo cell viability, MG132 combined with TSA or SAHA; type: cell-based, human; details: MDA-MB-231, MG132 5 μM combined with TSA or SAHA, 48 hrs
Procedure: as §4
Cells in 96-well plates were treated with different agents as required and cell viability was assessed using the Cell-Titer Glo kit (G7572; Promega) according to the protocol recommended by the manufacturer. By employing a luminescence read-out, this kit quantifies the level of ATP which is proportional to the number of viable cells.

PSM genes [6] = test: PSM gene mRNA by quantitative RT-PCR in LNCaP cells treated with MG132 and HDAC inhibitors; type: cell-based, human; details: 10 hrs; for MG132-mediated upregulation of representative PSM genes: MG132 1 μM + TSA 1 μM or MG132 1 μM + SAHA 1 μM; for steady-state PSM gene expression: TSA 1 μM or SAHA 5 μM alone
Procedure: as §4, §1

Row | Molecule | mRNA levels of PSM genes [1] | luciferase activity (3×PSMA4-mutARE-Luc, AREs mutated) (PSMA4 ARE) | luciferase activity (3×PSMA4-ARE-Luc) (PSMA4 ARE) | clearance from the patients' blood [5] | apoptosis / cell viability in combination with MG132 (MDA-MB-231 cells) | MG132-mediated upregulation of representative PSM genes (PSM genes [6]) | steady-state PSM gene expression (PSM genes [6]) | luciferase activity (8×ARE reporter) in combination with MG132 [4] | further results
1 | CC(C)C[C@@H](C=O)NC(=O)[C@H](CC(C)C)NC(=O)[C@H](CC(C)C)NC(=O)OCc1ccccc1 [MG132] (Cbz-Leu-Leu-Leu-aldehyde) | robustly induce mRNA levels of several PSM genes | neither MG132 nor overexpressed Flag-Nrf1 induced the synthetic promoter construct | an increase in luciferase activity was observed when compared to DMSO-treated control | – | – | – | – | – | inhibition at 2 µM ([2]; HT-29, read-out: inhibition of the chymotryptic site): 80 to 90%; mRNA levels of PSM genes after MG132 (PSM genes [3]; Nrf1−/− MEFs): severely blunted in their ability to upregulate PSM genes; mRNA levels of PSM genes after MG132 (PSM genes [3]; Nrf2−/− MEFs): induced mRNA levels of PSM genes; mRNA levels of PSM genes after MG132 (PSM genes [3]; WT MEFs): induced mRNA levels of PSM genes; luciferase activation (3×PSMA4-ARE-Luc) in cells overexpressing Flag-Nrf1 (PSMA4 ARE; LNCaP with Flag-Nrf1, plus MG132): further enhanced; luciferase activity (PSMB6 promoter-reporter) (murine PSMB6 promoter): dose dependent increase in luciferase activity; luciferase expression (8×ARE reporter) ([4]; MG132 alone versus untreated cells): luciferase expression was increased compared to non-test (untreated) cells
2 | CC(C)C[C@H](NC(=O)[C@H](CCc1ccccc1)NC(=O)CN1CCOCC1)C(=O)N[C@@H](Cc1ccccc1)C(=O)N[C@@H](CC(C)C)C(=O)[C@@]1(C)CO1 [carfilzomib] | – | – | – | rapidly cleared from the patients' blood within the first hour | – | – | – | – | –
3 | CC(/C=C/C(=O)NO)=C\[C@@H](C)C(=O)c1ccc(N(C)C)cc1 [TSA, trichostatin A] | – | – | – | – | enhanced apoptosis (decreased viability) | reproducibly inhibited the MG132-mediated upregulation of representative PSM genes | little effect on steady-state PSM gene expression | basal levels of luciferase activity were observed | –
4 | CC(C)C[C@H](NC(=O)[C@H](Cc1ccccc1)NC(=O)c1cnccn1)B(O)O [bortezomib] | robustly induce mRNA levels of several PSM genes | – | – | rapidly cleared from the patients' blood within the first hour | – | – | – | – | inhibition at 0.04 µM ([2]; HT-29, HT29, 1 hr, MG132 2 μM, YU101 100 nM, Bortezomib 40 nM): 80 to 90%
5 | O=C(CCCCCCC(=O)Nc1ccccc1)NO [SAHA, suberoylanilide hydroxamic acid] | – | – | – | – | enhanced apoptosis (decreased viability) | reproducibly inhibited the MG132-mediated upregulation of representative PSM genes | little effect on steady-state PSM gene expression | basal levels of luciferase activity were observed | –
6 | Flag-Nrf1: human Nrf1 with N-terminal 3×FLAG tag, expressed from pMSCV-hyg retroviral vector (protein, UniProt Q14494 1-772, looked up, N-terminal 3xFLAG tag, human Nrf1 with N-terminal 3×FLAG tag, expressed from pMSCV-hyg retroviral vector) Endoplasmic reticulum …: MLSLKKYLTEGLLQFTILLSLIGVRVDVDTYLTSQLPPLREIILGPSSAYTQTQFHNLRNTLDGYGIHPKSIDLDNYFTARRLLSQVRALDRFQVPTTEVNAWLVHRDPEGSVSGSQPNSGLALESSSGLQDVTGPDNGVRESETEQGFGEDLEDLGAVAPPVSGDLTKEDIDLIDILWRQDIDLGAGREVFDYSHRQKEQDVEKELRDGGEQDTWAGEGAEALARNLLVDGETGESFPAQVPSGEDQTALSLEECLRLLEATCPFGENAEFPADISSITEAVPSESEPPALQNNLLSPLLTGTESPFDLEQQWQDLMSIMEMQAMEVNTSASEILYSAPPGDPLSTNYSLAPNTPINQNVSLHQASLGGCSQDFLLFSPEVESLPVASSSTLLPLAPSNSTSLNSTFGSTNLTGLFFPPQLNGTANDTAGPELPDPLGGLLDEAMLDEISLMDLAIEEGFNPVQASQLEEEFDSDSGLSLDSSHSPSSLSSSEGSSSSSSSSSSSSSSASSSASSSFSEEGAVGYSSDSETLDLEEAEGAVGYQPEYSKFCRMSYQDPAQLSCLPYLEHVGHNHTYNMAPSALDSADLPPPSALKKGSKEKQADFLDKQMSRDEHRARAMKIPFTNDKIINLPVEEFNELLSKYQLSEAQLSLIRDIRRRGKNKMAAQNCRKRKLDTILNLERDVEDLQRDKARLLREKVEFLRSLRQMKQKVQSLYQEVFGRLRDENGRPYSPSQYALQYAGDGSVLLIPRTMADQQARRQERKPKDRRK | – | neither MG132 nor overexpressed Flag-Nrf1 induced the synthetic promoter construct | activated this synthetic promoter construct | – | – | – | – | – | –
